The record followed here is patent US20070028400A1, “Skin and/or hair treatment agent containing tetrasubstituted cyclohexene compounds” (priority 2003, published 2007).

The test system of this assay is primary normal human melanocytes. The experiment in a line: Melanogenesis assay (C14-tyrosine incorporation), 3 days incubation. The format is cell-based. The settings on record: measured as C14-tyrosine incorporation, n=3. As for the experimental part: By way of example, the test for the compound acetyl-retinyliminoethanol is given.
A melanogenesis assay was carried out after incubation for 3 days of primary normal human melanocytes with test substance compared to control. The numbers given in the table indicate the melanogenesis rates based on the untreated control (=100%) (measured as C14-tyrosine incorporation).

With `CC(=O)OCC/N=C/C=C(C)/C=C/C=C(C)/C=C/C1=C(C)CCCC1(C)C` [acetyl-retinyliminoethanol, 2-{[(1E,2E,4E,6E,8E)-3,7-dimethyl-9-(2,6,6-trimethylcyclohex-1-en-1-yl)nona-2,4,6,8-tetraen-1-ylidene]amino}ethyl acetate], the “melanogenesis rate based on the untreated control (=100%), Average” value worked out at 117% (0.1 μg/ml test substance) and 253% (1 μg/ml test substance).
